Tests used:
[1] = target: Cystic fibrosis transmembrane conductance regulator (Homo sapiens, UniProt P13569, F508DEL); experiment: Corrector activity at human CFTR delta F508 mutant expressed in rat FRT cells coexpressing fluorescent protein YFP-H148Q/1152L by fluorescence assay; type: cell-based
[2] = Potentiation activity at human CFTR delta F508 mutant-mediated iodine flux expressed in rat FRT cells coexpressing fluorescent protein YFP-H148Q/1152L by fluorescence assay; type: cell-based

Chain of Cystic fibrosis transmembrane conductance regulator (P13569 as listed by the source): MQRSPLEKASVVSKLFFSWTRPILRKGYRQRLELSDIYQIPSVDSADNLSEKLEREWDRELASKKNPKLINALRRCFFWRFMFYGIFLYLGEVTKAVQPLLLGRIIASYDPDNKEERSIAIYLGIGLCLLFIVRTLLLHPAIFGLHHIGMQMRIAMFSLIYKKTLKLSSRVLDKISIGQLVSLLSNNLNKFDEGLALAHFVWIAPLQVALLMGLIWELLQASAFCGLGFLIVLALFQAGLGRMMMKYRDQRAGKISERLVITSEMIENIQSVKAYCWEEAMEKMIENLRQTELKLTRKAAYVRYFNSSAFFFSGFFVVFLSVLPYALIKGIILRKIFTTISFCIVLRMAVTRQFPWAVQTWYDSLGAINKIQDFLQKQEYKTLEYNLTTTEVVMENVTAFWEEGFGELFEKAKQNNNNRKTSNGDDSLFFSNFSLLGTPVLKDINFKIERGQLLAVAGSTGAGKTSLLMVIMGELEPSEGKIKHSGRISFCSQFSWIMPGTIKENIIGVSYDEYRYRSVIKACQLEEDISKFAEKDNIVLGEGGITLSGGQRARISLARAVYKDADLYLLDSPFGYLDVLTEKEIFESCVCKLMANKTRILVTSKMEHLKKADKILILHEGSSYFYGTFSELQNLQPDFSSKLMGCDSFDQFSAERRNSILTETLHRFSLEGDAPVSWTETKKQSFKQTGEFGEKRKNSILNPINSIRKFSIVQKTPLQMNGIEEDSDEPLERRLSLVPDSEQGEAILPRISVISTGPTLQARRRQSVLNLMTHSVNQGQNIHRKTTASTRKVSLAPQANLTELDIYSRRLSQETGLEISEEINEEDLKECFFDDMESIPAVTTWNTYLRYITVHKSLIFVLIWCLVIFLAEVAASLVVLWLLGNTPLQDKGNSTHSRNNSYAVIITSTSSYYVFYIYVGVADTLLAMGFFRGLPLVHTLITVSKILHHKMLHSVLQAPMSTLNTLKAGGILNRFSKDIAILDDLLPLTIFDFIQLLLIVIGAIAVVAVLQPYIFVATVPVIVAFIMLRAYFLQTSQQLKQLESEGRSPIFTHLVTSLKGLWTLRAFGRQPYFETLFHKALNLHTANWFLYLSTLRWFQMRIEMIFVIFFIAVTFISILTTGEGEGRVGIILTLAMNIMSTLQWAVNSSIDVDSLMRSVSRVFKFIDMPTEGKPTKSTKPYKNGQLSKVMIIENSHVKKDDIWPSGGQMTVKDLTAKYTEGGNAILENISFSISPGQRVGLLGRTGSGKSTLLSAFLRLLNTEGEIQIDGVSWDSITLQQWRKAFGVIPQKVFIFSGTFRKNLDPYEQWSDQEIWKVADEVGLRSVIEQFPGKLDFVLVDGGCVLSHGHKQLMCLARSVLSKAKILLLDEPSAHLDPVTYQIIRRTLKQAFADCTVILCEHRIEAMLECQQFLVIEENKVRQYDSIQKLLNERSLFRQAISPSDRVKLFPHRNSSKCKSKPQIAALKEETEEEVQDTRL

Structure (SMILES)	EC50 [1] [nM]	EC50 [2] [nM]
Cc1nc(NC(=O)c2ccc([19F])cc2)sc1-c1csc(Nc2cc(N(C)C)ccc2Cl)n1	1400	
COc1ccc(Cl)cc1Nc1nc(-c2sc(NC(=O)c3ccc([19F])cc3)nc2C)cs1	1400	
COc1ccc(Cl)cc1Nc1nc(-c2sc(NC(=O)c3ccccc3)nc2C)cs1	2300	

Continued, values first:

EC50 [1] [nM]	EC50 [2] [nM]	Structure (SMILES)
	90	CN(C(=O)Cc1c[nH]c2ccccc12)[C@H](C(=O)Nc1ccc([19F])cc1)c1ccccc1
	1100	CN(C(=O)Cc1c[nH]c2ccccc12)[C@H](C(=O)Nc1ccc(-n2cc(CCC[19F])nn2)cc1)c1ccccc1

Source: ChEMBL document CHEMBL1949595, “Fluorinated ΔF508-CFTR correctors and potentiators for PET imaging” (Bioorg Med Chem Lett, 2012)
